For data set [1], the target named is in vitro translation in rabbit reticulocytes. As to the kind of experiment: In vitro translation assay in rabbit reticulocytes with Luciferase mRNA. In kind it is biochemical. As for the experimental part:
In vitro translation assays were performed in rabbit reticulocytes (Promega) according to manufacturer's instruction, in the presence or absence of Bouvardin at final concentrations shown. Luciferase mRNA provided in the kit was used at a final concentration of 1 ug/ul. The reactions samples were incubated for 15 minutes at 37° C. and quenched by dilution with water. Luciferase activity was measured using a plate reader Multi-Mode Microplate Reader (Synergy 2 by BioTek) immediately after luciferase substrate addition. Samples were also subjected to electrophoresis on SDS-polyacrylamide gels and immunoblotted with goat polyclonal α-luciferase primary antibodies (Promega) and donkey anti-goat IgG, HRP secondary antibodies (Promega). The blots were visualized using chemiluminescence detection (Pierce). (A) Luciferase activity at different concentrations of Bouvardin. Error bars show SEM from triplicate samples. (B) Luciferase protein levels in corresponding samples.

A further data set is described as follows: LD50 in mice. The conditions noted are these: mouse, in vivo.
The subject of data set [2] is 17 cell lines including Head and Neck Squamous Cell Carcinoma and non-small cell lung cancer lines. Kind of data set: MTT assays, Bouvardin with radiation, panel of 17 cell lines. The class given is cell-based, human. The text has this:
The observation that Bouvardin enhanced the effect of radiation on Drosophila larvae led us to question whether this effect would translate to a mammalian system. In order to determine what cell lines should be used to create tumor xenografts in mice, MTT assays for cell viability were used first to test the effects of Bouvardin alone and in combination with radiation in human cancer cells. MTT assays measure cell viability by measuring mitochondrial enzyme function. We used 17 cell lines including Head and Neck Squamous Cell Carcinoma and non-small cell lung cancer lines.
The data for non-small cell lung cancer cell line (H157) is depicted in FIG. 16.
The growth inhibitory effects of Bouvardin with ionizing radiation (IR) were evaluated using a modified tetrazolium salt (MTT) assay. In the MTT assay, 1,000 to 2,000 viable cells were plated in 100 uL of growth medium in 96-well plates (Corning, Ithaca, N.Y.). Following an overnight incubation, drug was added in varying concentrations and the plates were irradiated on the same day (co-treatment) or 24 hr later (pre-treatment) and incubated for 6 to 7 days. The tetrazolium salt was added at a concentration of 0.4 mg/mL to each well following the 6- to 7-day treatment. The plates were incubated with the salt for 4 hours at 37° C. […] The absorbency of each well was measured using an automated plate reader (Molecular Devices, Sunnyvale, Calif.). […]

In the next data set the test system is H157 tumor xenografts. Kind of data set: H157 tumor xenografts in athymic mice, Bouvardin with radiation. The class given is in vivo. The text has this:
The effectiveness of Bouvardin, IR and the combination of the two was next assessed in H157 tumor xenografts (FIG. 17B). […] Similar results were obtained in a repeat experiment (not shown). […] Bouvardin enhances the effect of radiation in Drosophila mutant larvae, human cancer cells and tumor xenografts in mice. The choice of drug concentration would be critical.
In FIG. 17 (A) Clonogenic assays were used to confirm the effects of Bouvardin in combination with radiation in H157 cells. Cells were plated in 6 well plates at 1,000 cells per well. 24 hours later, various doses of (1 nM, 5 nM and 10 nM) of Bouvardin were added with media alone as a control. 24 hours after the addition of Bouvardin, the cells were irradiated at 0, 2, 4 and 6 Gy. Colonies were allowed to form for 2 weeks and then counted. The results are shown as a percentage of control (no drug, no IR). Error bar=±1SEM. (B) The effect of Bouvardin (Bvd) and radiation on H157 xenografts in athymic mice. Bouvardin treatment began when tumors had reached approximately 200 mm3. Bouvardin was administered intraperitonealy twice a week, and radiation was administered 24 hr after each drug administration Animals in control and drug-only groups had tumors that were too large and had to be sacrificed on day 26. Treatment continued for the other two groups for one more week. The difference in tumor volume between combination-treated group and radiation only group was statistically significant at day 30 (p=0.0387 on day 30; upaired two tailed t-test). The difference in tumor volume between combination-treated group and radiation only group remains on day 33 but is less significant (p=0.0967; upaired two tailed t-test). N=10 per group. The data points indicate mean tumor volumes ±1SEM.
Six to 8-week-old female nude athymic mice were purchased from Harlan Laboratories and housed in a pathogen-free facility approved by the American Association for the Accrediation of Laboratory Animal Care and met all current regulations and standards of the U.S. Department of Agriculture, the U.S. Department of Health and Human Services and the National Institutes of Health Animal procedures were carried out in accordance with a protocol approved by the Institutional Animal Care and Use Committee of the University of Colorado. Cancer cells were grown to 80% confluence and harvested by trypsinization. Trypsin was neutralized with complete medium containing FBS. […] Mice were treated for 3 weeks, and tumor growth was measured until volume exceeded 2 cm3, when animals were euthanized. Tumor volume was measured on Tuesdays and Fridays. Tumor volume was calculated using the formula V=a2×b/2, where a and b are the smallest and largest tumor diameters, respectively, as determined using calipers.

These results are taken from patent US20150343016A1, “CHEMICAL ENTITIES AND THERAPEUTIC USES THEREOF” (The Regents of the University of Colorado, a body corporate, priority 2010, published 2015).

The term LD50 denotes the dose at which mortality reaches 50%. A higher LD50 goes with lower toxicity.

SMILES strings stand for the structures. “Also recorded” adds a separate entry of the source.

Turning to `COc1ccc(C[C@H]2C(=O)N[C@H](C)C(=O)N(C)[C@@H]3C(=O)N(C)[C@@H](Cc4ccc(O)c(c4)Oc4ccc(cc4)[C@H]3O)C(=O)N[C@@H](C)C(=O)N[C@H](C)C(=O)N2C)cc1` (stereo in doubt) [Bouvardin, bouvardin], the “IC50 in in vitro translation reactions” value in data set [1] was “nM range”. In data set [1] (15 minutes at 37° C.), the “effect on in vitro translation (luciferase activity and protein)” value is on record as “inhibits translation”. The compound also registered an LD50 in the data set “LD50 in mice” of 12.4 mg/kg. Further, the “interaction of Bouvardin with radiation across the panel” value in data set [2] is “synergize in most, but not all of these cell lines”. In addition, the “tumor control, drug with radiation versus radiation alone” value was “improved control of tumor volume in a statistically significant manner; also recorded: enhanced the effect of IR” in the data set with H157 tumor xenografts (0.2 mg/kg + radiation 24 hr after each drug administration, p=0.0387 on day 30, p=0.0967 on day 33) and “did not enhance the effect of radiation; also recorded: did not enhance the effect of IR” in the data set with H157 tumor xenografts (0.4 mg/kg + radiation). Also, the “tumor control, drug alone” value with H157 tumor xenografts (0.2 mg/kg intraperitonealy twice a week) is listed as “had little effect on its own”; in the data set with H157 tumor xenografts (0.4 mg/kg), “shows tumor control; also recorded: had effect on its own”.
